Data set [1] deals with inflammatory lesions / abscesses. The settings on record: cited from earlier work.
Data set [2] deals with mixed leukocytes. The experiment in a line: Mixed leukocyte labeling yield. The settings on record: for Mixed leukocyte labeling yield: 125I labeled, average, 10-30 μCi, 250-325 Ci/mmol. It is filed as cell-based, canine. The protocol:
Labeling of mixed leukocytes (harvested from 20 mL canine blood) with 4a-d was performed using five different procedures: 1) labeling in Diluent C (a commercial non-ionic cell labeling media developed by Zynaxis Co. that is not approved for human use) after two saline washes of the cell pellet; 2) labeling in saline after two saline washes of the cell pellet; 3) labeling in saline with no saline washes of the cell pellet; 4 and 5) labeling in ether 10% or 100% platelet poor plasma (PPP).
Unwashed mixed leukocytes in 1.5 mL 10% PPP in saline were also tested. […]
This was evaporated to dryness under vacuum in a speed vac and reconstituted into 30 ul ethanol. Forty milliliters of canine blood was drawn into a 60 mL syringe containing 6.5 mL acetate-citrate-dextrose solution. To this was added 5.5 mL 2% methyl cellulose in saline. The contents of the syringe were gently mixed by several inversions of the syringe and the syringe placed vertically, needle end up, for 45 minutes to allow the red blood cells to settle. The plasma was drawn off and placed into a 50 mL Falcon tube. The tube was centrifuged at 1100 rpm for 15 minutes to pellet the leukocytes. The plasma was removed and the cells resuspended in 2 mL saline. In a 1 mL plastic microcentrifuge was placed 0.5 mL saline. […] The cells were then underlayered with 7.5 mL of platelet poor plasma and centrifuged at 1600 rpm for seven minutes to pellet the cells. The supernatant was removed, the cells resuspended in 10 mL saline, and transferred to a new tube. The supernatant, cells, and labeling tube were counted for radioactivity. The cells were centrifuged again at 1600 rpm for 7 minutes, the supernatant removed, and the cells resuspended.
A sample of canine blood (20 mL) was drawn into a 60 mL syringe containing 3 mL acetate-citrate-dextrose (ACD) solution. To this was added 3 mL 2% methyl cellulose in saline. The contents of the syringe were gently mixed by several inversions, and the syringe was then placed vertically, needle end up, for 45 min to allow the red blood cells to settle. The plasma was drawn off and transferred to a 50 mL Falcon tube. The tube was centrifuged at 1100 rpm for 15 min to pellet the leukocytes. The plasma was removed and the cells resuspended in 10 mL saline. The tube was centrifuged at 1600 rpm for 7 min, the supernatant removed, and the cells resuspended in 10 mL saline and recentrifuged at 1600 rpm for 7 min. The supernatant was then removed and the cells resuspended in 2 mL Diluent C. Into a 1 mL plastic microcentrifuge tube was placed 0.5 mL Diluent C. […] The indium complex in Diluent C was immediately added to the leukocytes and the cells were placed vertically on a Nutator rocking apparatus and rocked gently for 30 min at room temperature. The cells were then underlayered with 5 mL of platelet poor plasma and centrifuged at 1600 rpm for 7 min to pellet the cells. The supernatant was removed, the cells resuspended in 10 mL saline, and transferred to a new tube. The supernatant, cells, and labeling tube were counted for radioactivity. The cells were centrifuged again at 1600 rpm for 7 min, the supernatant removed, and the cells resuspended.

Data set [3] deals with sodium urate induced abscess in the stifle joint. The experiment in a line: Localization of labeled leukocytes in dogs having a sodium urate induced abscess in the stifle joint (aspirate, gamma camera images). An excerpt: Mixed leukocytes labeled with 4b and ^111 In-oxine labeled mixed leukocytes were compared in dogs having a sodium urate-induced inflammation in the left stifle joint. […]

Data set [4] has as its system mononuclear leukocytes. The experiment in a line: Mononuclear leukocyte labeling yield. It is filed as cell-based. The settings on record: harvested from 20 mL canine blood via isolymph method. The protocol: Using ^125 I-4b and ^131 I-4b, mononuclear leukocytes harvested from 20 mL canine blood via the isolymph method (sodium diatrizoste and Ficol 400, d=1.077) were labeled in 77% and 85% yields, respectively. Thus, the present compounds can label both lymphocytes and mixed leukocytes in high yields, and that the latter can be used to image sites of focal inflammation.

[5] abbreviates: labeled leukocytes, McAfee et al.
Setting [6] is: Table 3 Experiment 3, 4b 500 Ci/mmol, Diluent C after 2 × 10 mL saline washes.
Where [7] appears, read: Table 3 Experiment 4, 4b 1000 Ci/mmol, Diluent C after 2 × 10 mL saline washes.
Setting [8] is: Table 3 Experiment 5, 4b 800 Ci/mmol, saline after 2 × 10 mL saline washes.
Where [9] appears, read: Table 3 Experiment 6, 4b 800 Ci/mmol, saline after 2 × 10 mL saline washes.
The mark [10] stands for this setting: 48 hour, estimated from region of interest (ROI) measurements.
Setting [11] is: Experiment 3, injected 88 μCi 131I-4b, 331 μCi 111In-oxine, Diluent C.
Setting [12] is: Experiment 4, injected 255 μCi 131I-4b, 288 μCi 111In-oxine, Diluent C.
[13] abbreviates: Experiment 5, injected 272 μCi 131I-4b, 326 μCi 111In-oxine, saline.
The mark [14] stands for this setting: Experiment 6, injected 211 μCi 131I-4b, 378 μCi 111In-oxine, saline.

As to `C/C(=N\[O-])[C@@H](C)[N-]CC(C)(C)C[N-][C@H](C)/C(C)=N/O.[O]=[99Tc+3]` (racemic) [^99m Tc-HMPAO], the “stability compared with the 111In radiopharmaceuticals” value in data set [1] (in vitro and in vivo) is “less stable both in vitro and in vivo”. Moreover, in data set [1] (labeled leukocytes, in vivo), the nonspecific biodistribution entry is recorded as “diffuse abdominal radioactivity, gall bladder uptake”. For the same compound, in data set [1] (setting [5]), the “target to background ratios compared with cells labeled with 111In-oxine” value is “lower target to background ratios” and the “uptake in abscesses compared with cells labeled with 111In-oxine” value was “lower absolute uptake in abscesses”. For the same compound, the “renal excretion of unidentified polar species containing 99mTc, earliest time” value in data set [1] (printed as early as three hours post injection) was “three hours post injection”.
As to `CCCCCCCCN(CCCCCCCC)c1ccc(/C=C/c2cc[n+](C/C=C/[125I])cc2)cc1` [Compound 4c], the “Mixed leukocyte labeling yield” value was 52% in data set [2] (Diluent C); 32% in data set [2] (saline, 2 washes of pellet); 6% in data set [2] (saline, no washes of pellet). Moreover, the “Leukocyte labeling (in words)” value in data set [2] (five labeling procedures compared) was “only labeled leukocytes in useful yields using Diluent C”.
As to `[In+3].[O-]c1cccc2cccnc12.[O-]c1cccc2cccnc12.[O-]c1cccc2cccnc12` [^111 In-oxine, reference compound], the “absolute inflammatory lesion uptake” value in data set [1] (compared with all agents yet tested) is reported as “highest absolute inflammatory lesion uptake of all agents yet tested”. For the same compound, the “Labeling Yield” value in data set [2] (Table 3 Experiment 1, 4b 250 Ci/mmol, Diluent C after 2 × 10 mL saline washes) was found to be 88%; in data set [2] (Table 3 Experiment 2, 4b footnotes a,c (250 / 1000 Ci/mmol)), 91%; in data set [2] (setting [6]), 85%; in data set [2] (setting [7]), 94%; in data set [2] (setting [8]) it was 89%; in data set [2] (setting [9]), 87%. In addition, in data set [3] (3 hours), the “abscess visibility in gamma camera images” value is reported as “the abscess was visible at 3 hours”. Further, the “percent injected dose per organ, liver” value in data set [3] (setting [10]) was 13.1%. Besides, the “% aspirate radioactivity cell bound” value in data set [3] (Experiment 1) turned out to be 95%; in data set [3] (Experiment 2) it was 98%; in data set [3] (Experiment 3), 79%; in data set [3] (Experiment 4), 88%; in data set [3] (Experiment 5), 92%; in data set [3] (Experiment 6), 78%. Moreover, the “% inj. dose in abscess aspirate” value in data set [3] (Experiment 1, injected 84 μCi 125I-4b, 500 μCi 111In-oxine, Diluent C) stood at 0.383%; in data set [3] (Experiment 2, injected 66 μCi 125I-4b, 312 μCi 111In-oxine), 0.088%; in data set [3] (setting [11]), 0.019%; in data set [3] (setting [12]) it was 0.056%; in data set [3] (setting [13]), 0.021%; in data set [3] (setting [14]), 0.016%. In addition, the “abscess to contralateral knee ratio” value in data set [3] (Experiment 3, 3 hour) came to 2.7; in data set [3] (Experiment 4, 48 hours) it was 4.0. In addition, the “abscess to surrounding tissue ratio” value in data set [3] (Experiment 3, 3 hour) was found to be 2.0; in data set [3] (Experiment 4, 48 hours), 2.6. Moreover, in data set [3] (Experiment 6), the “131I/111In or 125I/111In in aspirate” value stood at 22. For the same compound, in data set [3] (between 1 hour and 3 hours), the “gamma camera images, comparison of 4b and 111In-oxine” value was “comparable”.
For the compound `CCCCCCN(CCCCCC)c1ccc(/C=C/c2cc[n+](C/C=C/[131I])cc2)cc1` [^131 I-4b, 3-[4-[2-(N,N-dihexylamino)phenyl]ethyenyl]pyridino-E-1-[^131 I]-iodo-propene], the “131I bound to the cells” value in data set [2] (Example 10, of 372 uCi added, saline, 20 min) is reported as 340 uCi. Besides, the “131I bound to the cells (labeling yield)” value in data set [2] (Example 10, saline, 372 uCi, 20 min, room temperature, after second centrifugation) worked out at 91%. Besides, the “Labeling Yield” value worked out at 88% in data set [2] (setting [6]), 88% in data set [2] (setting [7]), 86% in data set [2] (setting [8]) and 87% in data set [2] (setting [9]). In addition, the “percent injected dose per organ, abscess” value in data set [3] (setting [10]) is listed as 1.15%. The “131I/111In or 125I/111In in aspirate” value in data set [3] (Experiment 3) is on record as 2.6; in data set [3] (Experiment 4), 3.5; in data set [3] (Experiment 5), 4.3; in data set [3] (Experiment 6), 22. Further, the “% aspirate radioactivity cell bound” value in data set [3] (Experiment 3) is 93%; in data set [3] (Experiment 4) it was 97%; in data set [3] (Experiment 5), 95%; in data set [3] (Experiment 6), 94%. The “abscess to contralateral knee ratio” value amounted to 3.7 in data set [3] (Experiment 3, 3 hour) and 9.1 in data set [3] (Experiment 4, 48 hours). Further, the “abscess to surrounding tissue ratio” value in data set [3] (Experiment 3, 3 hour) is 2.3; in data set [3] (Experiment 4, 48 hours) it was 6.3. Moreover, the “% inj. dose in abscess aspirate” value in data set [3] (setting [11]) is 0.050%; in data set [3] (setting [12]), 0.194%; in data set [3] (setting [13]), 0.092%; in data set [3] (setting [14]), 0.355%. Also, the “lung sequestration of labeled leukocytes” value in data set [3] (dog, in vivo) is listed as “No lung sequestration was observed”. Moreover, the “percent injected dose per organ, liver” value in data set [3] (dog, in vivo, 2880 min) is 8.7%. Moreover, the “localization of labeled leukocytes in induced inflammatory site/abscess, compared with 111In-oxine (111In-labeled) leukocytes” value in data set [3] (sodium urate induced abscess, dog) is reported as “higher degree of localization”. Moreover, in data set [4], the “Mononuclear leukocyte labeling yield” value is given as 85%.
Regarding “indium-111 complex of N-[methyl(2-(Di-4-ASP-propylthiourea)ethyl)carbamide]-trans-1,2-diaminocyclohexane-N,N',N'-triacetic acid [^111 In-19a]”, the “Mixed leukocyte labeling yield, 111In complexes” value in data set [2] (Diluent C) came out at 4%.
On to “indium-111 complex of N-[methyl(2-(Di-6-ASP-acetamido)ethyl)carbamide]-trans-1,2-diaminocyclohexane-N,N',N'-triacetic acid [^111 In-18]”, for which the “Mixed leukocyte labeling yield, 111In complexes” value in data set [2] (Diluent C) is 21%.
In the case of “indium-111 complex of N-[methyl(2-(Di-10-ASP-propylthiourea)ethyl)carbamide]-trans-1,2-diaminocyclohexane-N,N',N'-triacetic acid [^111 In-19b]”, the “Mixed leukocyte labeling yield, 111In complexes” value in data set [2] (Diluent C) was 84%. Further, the “111In bound to the cells (labeling yield)” value in data set [2] (Example 15, Diluent C, 44.4 μCi, 30 min, room temperature) came to 84%. The “111In bound to the cells” value in data set [2] (Example 15, of 44.4 μCi added) was 37.4 μCi.

The values are drawn from patent US5840859A, “(Aminostyryl)pyridinium compounds for radiolabelling cell membranes” (Research Corporation Technologies, Inc., priority 1996, dated 1998).
